Experimental data as given in patent publication US5593969A, “Lipid-A analogs: monosaccharide and dissaccharide compounds for inhibiting binding of lipid A receptors to lipid A receptors” (IGEN Incorporated, priority 1993, dated 1997).

How the values were obtained:
[1] = test system: Pseudomonas aeruginosa; assay type: in vivo, Pseudomonas aeruginosa in ICR mice; conditions: Lipid-A at 1 μg/mouse
[2] = Serum antibody titre on Lipid-A by ELISA after liposome immunization; assay type: in vivo, Balb/c mice; conditions: Lipid-A liposomes with HEL[105-120], HEL primed
Method: i) A stock solution of lipids for the formation of liposomes was prepared by mixing 10 mM solutions of dimyristoyl phosphatidyl choline, dicetyl phosphate and cholesterol (all from Sigma Chemicals) in the ratio 1.0:0.11:0.75. This stock was aliquotted into 1.0 ml volumes and dried under argon and stored at -20° C. until used.
ii) 500 μg of immunogen 3D dissolved in CHCl3 was dried into a 50 ml round bottomed flask on a rotary evaporator. One aliquot of the lipid stock was dissolved in 1 ml of CHCl3 :MeOH (9:1) and added to the dried immunogen 3D. The dissolved lipids were thoroughly mixed then dried together on a rotary evaporator under argon until all solvent had been removed and then for an additional 15 mins. The flask was then placed in a high vacuum dessicator for 2 hrs. 1.0 ml of swelling solution, approximately 0.9% NaCl, was added to the dry lipid film with 0.5 g of glass beads and mixed vigorously by swirling and vortexing. Liposomes were allowed to swell at room temperature overnight. […]
Mice which were primed with HEL and immunized with Immunogen 3D("Imm-3D") and Lipid-A incorporated separately into liposomes along with the peptide HEL[105-120] […] Seven days after the final immunization, serum samples were taken and the titres of IgG and IgM anti-Lipid-A antibodies determined separately by ELISA. […]

[3] = test system: tumor cells; experiment: Antitumor activity (Meth A fibrosarcoma, melanoma or Pro b cells); assay type: in vivo; conditions: 250, 100 or 10 μg/mouse or up to 10 μg/kg, intravenously or intratumorly

In the case of Lipid-A, the “protective activity against gram-negative bacteria” value [1] is reported as “exhibits protective activity”, the “IgG antibody responses to the eliciting antigen” value [2] is reported as “enhanced IgG antibody responses” and the tumor growth [3] is reported as “retarded or prevented”.
